This is an account of results in paper PMC5358388 (Proceedings of the National Academy of Sciences of the …, 2017).

Assay [1] concerns cytosolic labile heme in P. falciparum. It is filed as cell-based, Plasmodium falciparum.
In a further assay the test system is P. falciparum. In words: Growth inhibition of P. falciparum lines by chloroquine. In kind it is cell-based. Particulars: Plasmodium falciparum.

Like-named read-outs stand apart in the source and are kept apart here.

As a reminder, the IC50 is the concentration needed to halve the response being measured. Take `CCN(CC)CCCC(C)Nc1ccnc2cc(Cl)ccc12` (stereo not drawn) [chloroquine]: the “average Δ[heme], increase in labile heme concentration vs untreated control” value in assay [1] (60 nM chloroquine, four independent experiments, P = 0.002) is listed as “+0.86 µM”. Moreover, the “lower bound on labile cytosolic heme level” value in assay [1] (60 nM chloroquine, assuming no chloroquine in the cytosol) is on record as ~2.8 µM. Moreover, the “upper bound on labile cytosolic heme level” value in assay [1] (60 nM chloroquine, assuming ≥1:1 chloroquine:heme in the cytosol) was ~7 µM. Moreover, the IC50 was in the range of 10.3 to 11.3 nM with P. falciparum (read-out: chloroquine IC50 (95% CI), parasites expressing CH49Y) and 8.2 to 9.7 nM in the assay with P. falciparum (read-out: chloroquine IC50 (95% CI), parental NF54attB line).
Regarding `CCc1nc(N)nc(N)c1-c1ccc(Cl)cc1` [pyrimethamine], the “change in labile heme concentration, treated vs untreated parasites” value in assay [1] (pyrimethamine 125 and 500 nM, 32 h) is given as “No increase in labile heme concentration”.
